Test results from patent publication US20210260051A1, “COMBINATION OF EZH2 INHIBITOR AND CHECKPOINT THERAPY FOR THE TREATMENT OF CANCER” (Board of Regents, The University of Texas System, priority 2018, published 2021).

Key:
[1] = system: CXCL9 and CXCL10 in MB49 tumor; assay: relative CXCL9 and CXCL10 expression in tumor of MB49 tumor-bearing mice; format: in vivo, mouse; details: FIG. 10C-D
[2] = system: Nalm-6 target tumor cells; assay: T cell cytotoxicity assay; format: cell-based, human; details: in vitro
Procedure: T cell cytotoxicity assay was carried out using activated effector T cells (isolated with EasySep Human Naïve CD4^+ T Cell Isolation Kit and EasySep Human CD8^+ T Cell Enrichment Kit; STEMCELL Technologies). Purified naïve CD4 and total CD8 T cells were pre-activated with plate-bound anti-CD3/soluble anti-CD28 for 6 days in the presence or absence of CPI-1205. Activated T cells were then washed and challenged with Nalm-6 target tumor cells, then labeled with CellTrace violet to enable their subsequent discrimination from effector cells. The T cell:tumor cell co-cultures were conducted at different effector:target (E:T) ratios, in the presence of the blinatumomab antibody (10 ng/ml) and CPI-1205 for 20 hours as previously described (3). Target cell death was determined by summing the percentage of apoptotic (Annexin V^+) and dead or dying (7AAD+) target (CellTrace violet^+) cells after overnight culture.

MB49 tumor = assay: MB49 tumor-bearing Rag1-/- mice; format: in vivo, mouse; details: compared with the untreated group
From the text: (§1) FIGS. 3A-3F: Blocking expression of EZH2 mediated by anti-CTLA-4 using CPI-1205 increases the effectiveness of anti-CTLA-4 therapy. Tumor growth (FIG. 3A), survival (FIG. 3B) and percentages of intra-tumoral CD4^+CD25^+FoxP3^+ regulatory T cells, CD4^+ICOS^+T-bet^+ and CD8^+IFNγ^+ cells (FIG. 3C) in MB49 tumor-bearing mice treated with vehicle, anti CTLA-4, CPI-1205, or the combination. Tumor growth (FIG. 3D) and percentages of CD4^+IFNγ^+ cells and CD8^+TNFα^+ cells in the lymph nodes (LN) (FIG. 3E) of MB49 tumor-bearing Ezh2^fl/+ and FoxP3^CreEzh2^fl/fl mice treated with anti-CTLA-4 on days 7 and 9. (FIG. 3F) Tumor growth and survival of MB49 tumor-bearing Rag-1^−/− mice treated with vehicle or CPI-1205. Data are representative of three independent experiments (n=10 in each group; one-way ANOVA was used to determine significance between the groups. **p<0.01).
To determine whether the anti-tumoral effect of combination therapy is exclusively due to effector immune response or is an additive effect of CPI-1205 on tumor cells, Rag 1^−/− C57BL/6 mice were used, which have no mature lymphocyte population. MB49 tumor-bearing Ragl^−/− mice were treated with CPI-1205.
Mice. C57BL/6 (5-7 weeks) mice were purchased from the National Cancer Institute (Frederick, Md.). […]

MB49 (bladder) tumor = assay: MB49 tumor-bearing C57BL/6 mice; format: in vivo
From the text: as §1
It was evaluated whether the combination of anti-CTLA-4 with CPI-1205 increases the effectiveness of anti-CTLA-4. MB49 (bladder) and B 16-F10 (melanoma) tumor-bearing C57BL/6 mice were treated with anti-CTLA-4 and the EZH2 inhibitor CPI-1205 as monotherapies and in combination.
Cell lines and tumor model. Murine bladder cancer cell line (MB49) were provided by Dr. A. Kamat (at The University of Texas MD Anderson Cancer Center) and murine melanoma cell line B16-F10 was obtained from Dr. I. Fidler (The University of Texas MD Anderson Cancer Center). 2×10^5 (MB49) or 2×10^5 (B16-F10) cells were injected subcutaneously or intradermally respectively, in the flanks of C57BL/6 mice (5 or 10 mice per group). […]
Tissue processing and flow cytometry. […] Staining with intracellular anti-Foxp3 (eBioscience, FJK-16 s), […] (eBioscience, PC61.5), antiKi-67 (eBioscience, SolA15), antiIFN-γ (BioLegend, XMG1.2), anti-TNF-α (BioLegend, MP6-XT22), and anti-EZH2 (Cell Signaling Technology, D2C9) were analyzed by flow cytometry according to the manufacturers’ instructions. Flow cytometry data were acquired on BD LSR II (BD Biosciences) and analyzed using FlowJo software (Tree Star, Ashland, Oreg.).

With `COc1cc(C)[nH]c(=O)c1CNC(=O)c1c(C)n([C@H](C)C2CCN(CC(F)(F)F)CC2)c2ccccc12` [CPI-1205, N-[(4-methoxy-6-methyl-2-oxo-1H-pyridin-3-yl)methyl]-2-methyl-1-[(1R)-1-[1-(2,2,2-trifluoroethyl)piperidin-4-yl]ethyl]indole-3-carboxamide] the “CXCL9 expression in tumor” value [1] was “increased”, the “CXL10 expression in tumor” value [1] was “increased” and the “cytotoxicity of human effector T cells” value [2] was “enhanced”. For the same compound, the survival (MB49 tumor) was “No significant difference”, the tumor growth (MB49 tumor) was “No significant difference” and the “proportion of tumor-infiltrating cytotoxic T cells” value (MB49 (bladder) tumor; in vivo in the murine model (model not named)) was “enhanced”. For the same compound, the B cell abundance (MB49 (bladder) tumor; model not named) was “no difference” and the myeloid cells (MB49 (bladder) tumor; model not named) was “effected certain subsets”.
